Values quoted from earlier work in patent US20130143970A1, “MEDICINAL PREPARATION PARTICULARLY FOR THE TREATMENT OF SLIPPED DISCS HERNIAS” (priority 2002, published 2013).

Conditions: intradiscal injections

CCO [absolute alcohol, ethanol]
treatment results in lumbar discal hernias: very promising results
